Structures are written as SMILES. Where two headings read alike, the source gives them in different places.

The text below walks through data of patent publication US12624034B2, “Non-covalent modifiers of AKT1 and uses thereof” (Terremoto Biosciences, Inc., priority 2023, dated 2026).

Experiment [1] addresses T1, AKT2 (Homo sapiens, UniProt P31751).
T1 construct: expressed in transfected cells; host or cells: HEK293
Description: Live cell AKT2 target engagement by NanoBRET competitive probe displacement in HEK293 cells. The class given is binding. The conditions noted are these: 2 h at 37° C., read-out: AKT2 IC50. (In general: Bioluminescence resonance energy transfer reports proximity on the nanometre scale.)

Experiment [2] concerns the target T2, AKT1 E17K (Homo sapiens, UniProt P31749, E17K).
T2 construct: expressed in transfected cells; host or cells: HEK293
Description: Live cell AKT1 E17K target engagement by NanoBRET competitive probe displacement in HEK293 cells. The conditions noted are these: 2 h at 37° C. In kind it is binding. Put shortly: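 HEK293 cells transiently expressing kinase–NanoLuciferase fusions (overnight transfection) were exposed to serially diluted compound plus a fluorescent ATP-competitive tracer at ~EC50 for 2 h at 37° C. After substrate and extracellular luciferase inhibitor, emission at 460 and 600 nm gave the BRET ratio (E600/E460); IC50 from Hill fit.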

Experiment [3] addresses T3, AKT1 WT (Homo sapiens, UniProt P31749).
T3 construct: expressed in transfected cells; host or cells: HEK293
Description: Live cell AKT1 WT target engagement by NanoBRET competitive probe displacement in HEK293 cells. The class given is binding. The conditions noted are these: 2 h at 37° C., read-out: AKT1 WT IC50.

Experiment [4] has as its system LAPC4 prostate cancer cells, which express the AKT1 E17K allele. Description: Antiproliferative effects in LAPC4 cells (CellTiter Glo, 72 h). In kind it is cell-based. To be noted: Homo sapiens, LAPC4, 72 h, read-out: LAPC4 proliferation IC50. The procedure, abridged:
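LAPC4 cells were cultured in IMDM with 12% FBS and 1% P/S, seeded at 1,000 cells/well and exposed to compound dilutions in DMSO. After 72 h, intracellular ATP was measured by CellTiter Glo luminescence, and IC50 values came from a log(inhibitor) vs. response Hill fit.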

[5] abbreviates: NanoBRET live cell target engagement, HEK293 cells.
Where [6] appears, read: NanoBRET competitive probe displacement, live HEK293 cells.

T2 sequence (P31749 whole entry E17K): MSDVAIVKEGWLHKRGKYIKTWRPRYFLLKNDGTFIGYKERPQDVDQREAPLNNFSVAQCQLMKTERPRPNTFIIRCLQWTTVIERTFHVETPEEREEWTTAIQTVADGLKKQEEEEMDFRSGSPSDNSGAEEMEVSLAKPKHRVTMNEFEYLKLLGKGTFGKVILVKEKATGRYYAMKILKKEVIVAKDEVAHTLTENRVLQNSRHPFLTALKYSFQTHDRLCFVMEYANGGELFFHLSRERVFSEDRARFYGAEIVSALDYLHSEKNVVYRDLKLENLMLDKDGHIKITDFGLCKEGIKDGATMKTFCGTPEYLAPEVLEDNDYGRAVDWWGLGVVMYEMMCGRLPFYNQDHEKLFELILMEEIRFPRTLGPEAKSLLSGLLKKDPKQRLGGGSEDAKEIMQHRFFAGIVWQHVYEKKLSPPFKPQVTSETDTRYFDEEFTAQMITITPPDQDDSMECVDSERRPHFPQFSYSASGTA
T3 sequence (P31749 whole entry): as the sequence (P31749 whole entry E17K) above, with K17E counted along it
T1 sequence (P31751 whole entry): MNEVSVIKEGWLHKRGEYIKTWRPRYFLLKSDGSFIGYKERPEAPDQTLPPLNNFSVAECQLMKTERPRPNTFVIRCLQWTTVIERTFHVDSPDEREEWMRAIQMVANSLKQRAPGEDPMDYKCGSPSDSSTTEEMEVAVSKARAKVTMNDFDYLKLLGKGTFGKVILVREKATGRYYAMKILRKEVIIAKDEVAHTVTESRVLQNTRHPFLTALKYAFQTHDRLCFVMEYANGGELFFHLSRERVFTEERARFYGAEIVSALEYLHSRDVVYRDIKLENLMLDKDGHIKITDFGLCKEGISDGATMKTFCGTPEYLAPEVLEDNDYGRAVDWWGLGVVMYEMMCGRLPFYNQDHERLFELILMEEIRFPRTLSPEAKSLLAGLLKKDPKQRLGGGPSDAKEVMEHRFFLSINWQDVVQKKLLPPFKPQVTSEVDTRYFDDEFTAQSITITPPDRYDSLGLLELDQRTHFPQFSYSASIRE

Consider `Nc1ncccc1-c1nc2ccc(-n3cccn3)nc2n1-c1ccc2c(c1)CC[C@@H]2NC(=O)c1ccc(F)c(F)c1` [Compound 262], for which the IC50 worked out at 211 nM in experiment [1] (setting [5]), 68.1 nM in experiment [2] (setting [5]), 8.14 nM in experiment [3] (setting [5]) and 2340 nM in experiment [4].

`Cc1cncc(C(=O)N[C@H]2CCc3cc(-n4c(-c5cccnc5N)nc5ccc(-n6cccn6)nc54)ccc32)c1` [Compound 30, (S)—N-(5-(2-(2-aminopyridin-3-yl)-5-(1H-pyrazol-1-yl)-3H-imidazo[4,5-b]pyridin-3-yl)-2,3-dihydro-1H-inden-1-yl)-5-methylnicotinamide]: the IC50 in experiment [1] (setting [5]) was 127 nM; in experiment [2] (setting [5]), 51.1 nM; in experiment [3] (setting [5]), 10.6 nM; in experiment [4] it was 721 nM.

For the molecule `Nc1ncccc1-c1nc2ccc(-n3cccn3)nc2n1-c1ccc2c(c1)CC[C@@H]2NC(=O)Cc1ccn[nH]1` [Compound 51, (S)—N-(5-(2-(2-aminopyridin-3-yl)-5-(1H-pyrazol-1-yl)-3H-imidazo[4,5-b]pyridin-3-yl)-2,3-dihydro-1H-inden-1-yl)-2-(1H-pyrazol-5-yl)acetamide], the IC50 is 4560 nM in experiment [1] (setting [5]), above 1000 nM in experiment [2] (setting [5]), 137 nM in experiment [3] (setting [5]) and above 10000 nM in experiment [4].

Turning to `N#Cc1ccc(C(=O)N[C@H]2CCc3cc(-n4c(-c5cccnc5N)nc5ccc(-n6cccn6)nc54)ccc32)cc1` [Compound 41, N-[(1S)-5-[2-(2-aminopyridin-3-yl)-5-(pyrazol-1-yl)imidazo[4,5-b]pyridin-3-yl]-2,3-dihydro-1H-inden-1-yl]-4-cyanobenzamide], the IC50 in experiment [1] (setting [5]) was determined as 57.4 nM; in experiment [2] (setting [5]), 30.1 nM; in experiment [3] (setting [5]) it was 6.36 nM; in experiment [4], 1170 nM.

With `Nc1ncccc1-c1nc2ccc(-n3cccn3)nc2n1-c1ccc2c(c1)CC[C@@H]2NC1CN(C(=O)C2CC2)C1` [Compound 441], the IC50 was 1340 nM in experiment [1] (setting [6]), above 1000 nM in experiment [2] (setting [6]), 21.7 nM in experiment [3] (setting [6]) and 3710 nM in experiment [4].

Regarding `Nc1ncccc1-c1nc2ccc(-n3cccn3)nc2n1-c1ccc2c(c1)CC[C@@H]2NC(=O)c1ccncc1` [Compound 35, N-[(1S)-5-[2-(2-aminopyridin-3-yl)-5-(pyrazol-1-yl)imidazo[4,5-b]pyridin-3-yl]-2,3-dihydro-1H-inden-1-yl]pyridine-4-carboxamide], the IC50 was 98.6 nM in experiment [1] (setting [5]), 143 nM in experiment [2] (setting [5]), 14.2 nM in experiment [3] (setting [5]) and 1750 nM in experiment [4].

As for `Nc1ncccc1-c1nc2ccc(-n3cccn3)nc2n1-c1ccc2c(c1)CC[C@@H]2NC1CCN(C(=O)c2cccnc2)CC1` [Compound 359], the IC50 in experiment [1] (setting [5]) was above 10000 nM; in experiment [2] (setting [5]), above 1000 nM; in experiment [3] (setting [5]) it was 231 nM; in experiment [4] it was above 10000 nM.

Take `COC1(C(F)F)CC(C(=O)N[C@H]2CCc3cc(-n4c(-c5cccnc5N)nc5ccc(-n6cccn6)nc54)ccc32)C1` (single isomer, unassigned) [Compound 10]: the IC50 in experiment [1] (setting [5]) is above 10000 nM; in experiment [2] (setting [5]) it was above 1000 nM; in experiment [3] (setting [5]) it was 390 nM; in experiment [4] it was above 10000 nM.

In the case of `COc1cncc(C(=O)N[C@H]2CCc3cc(-n4c(-c5cccnc5N)nc5ccc(-n6cccn6)nc54)ccc32)c1` [Compound 21, (S)—N-(5-(2-(2-aminopyridin-3-yl)-5-(1H-pyrazol-1-yl)-3H-imidazo[4,5-b]pyridin-3-yl)-2,3-dihydro-1H-inden-1-yl)-5-methoxynicotinamide], the IC50 in experiment [1] (setting [5]) stood at 30.2 nM; in experiment [2] (setting [5]), 20.9 nM; in experiment [3] (setting [5]), 4.46 nM; in experiment [4], 1050 nM.
